Results: patent publication US4241052A, “Novel nitrosourea compounds and process for preparing the same” (Tanabe Seiyaku Co., Ltd., priority 1978, dated 1980)

What was measured:
[1] = tested on: Ehrlich ascites carcinoma; test: Preventive effect against the growth of Ehrlich ascites carcinoma (Method A); format: in vivo, mice (ICR, female); conditions: for therapeutic index (M.T.D./M.E.D.), times greater than that of GANU: Ehrlich ascites tumor, relative to GANU; for inhibition in vivo at 0.78 mg/kg: 0.78 mg/kg/day i.p.; for inhibition in vivo at 1.56 mg/kg: 1.56 mg/kg/day i.p.; for inhibition in vivo at 25 mg/kg: 25 mg/kg/day i.p.; for minimal effective dose: 168 h, min dose, 100% inhibition, read-out: MED (Minimum Effective Dose)
Description: (§1) (A) Preventive effect against the growth of Ehrlich ascites tumor
(§2) 10^6 tumor cells of Ehrlich ascites carcinoma were inoculated intraperitoneally into a group of five femal mice (ICR mice, body weight: 19-23 g). A test compound was dissolved in a physiological saline solution and administered intraperitoneally to the mice. The administration of the test compound was began 24 hours after the inoculation of the tumor cells and performed once a day for 5 days. The volume of ascites in the treated mice were measured after 7 days of the experiment.

Leukemia L-1210 = test: Effect on life span of mice implanted with leukemic cells of L-1210 (Method B); format: in vivo, mice (BDF1, male); conditions: five consecutive days
Description: (B) Effect on the life span of mice implanted with leukemic cells of L-1210
10^5 leukemic cells of L-1210 were inoculated intraperitoneally into a group of four male mice (BDF1 mice, body weight: 19-23 g). A test compound was dissolved in a physiological saline solution and administered intraperitoneally to the mice. The administration of the test compound was began 24 hours after the inoculation of the leukemic cells and performed once a day for 5 days. The survival days of the treated mice were observed.

[2] = Preventive effect against the growth of Ehrlich ascites carcinoma (Method A); format: in vivo, mice (ICR, female); conditions: mouse, in vivo, ip; max dose, 100% inhibition without death; doses of the table in mg/kg/day; read-out: MTD (Maximum Tolerated Dose)
Description: as §1, §2

[3] = Mus musculus, Ehrlich, ip, 120 h, 5 days, read-out: Inhibition ratio
[4] = Mus musculus, Ehrlich, ip, 120 h, 6.25 mg/kg/day i.p., 5 days, read-out: Inhibition ratio
[5] = Mus musculus, Ehrlich, ip, 120 h, 100 mg/kg/day i.p., 5 days, read-out: Inhibition ratio
[6] = Mus musculus, Ehrlich, ip, 120 h, 400 mg/kg/day i.p., 5 days, read-out: Inhibition ratio
[7] = Mus musculus, Ehrlich, ip, doses of the table in mg/kg/day
[8] = Mus musculus, Ehrlich, ip, 120 h, 3.12 mg/kg/day i.p., 5 days, read-out: Inhibition ratio

**Q.** With `COc1ccc(CN(C(=O)N(CCCl)N=O)C2O[C@H](CO)[C@@H](O[C@H]3O[C@H](CO)[C@@H](O)[C@H](O)[C@H]3O)[C@H](O)[C@H]2O)cc1` (stereo partly drawn) as the compound, how does the “therapeutic index (M.T.D./M.E.D.), times greater than that of GANU” value (from here on “therapeutic index … of GANU”) [1] read?
**A.** The value was “about 8 times”.

**Q.** For `O=NN(CCCl)C(=O)N(Cc1cccs1)C1O[C@H](CO)[C@@H](O[C@H]2O[C@H](CO)[C@@H](O)[C@H](O)[C@H]2O)[C@H](O)[C@H]1O` (stereo partly drawn), which “therapeutic index … of GANU” value [1] is on record?
**A.** Its value is “about 8 times”.

**Q.** Which “therapeutic index … of GANU” value [1] does the source give for `O=NN(CCCl)C(=O)N(Cc1ccccc1)C1O[C@H](CO)[C@@H](O[C@H]2O[C@H](CO)[C@@H](O)[C@H](O)[C@H]2O)[C@H](O)[C@H]1O` (stereo partly drawn) here?
**A.** Its value is “about 8 times”.

**Q.** With `O=NN(CCCl)C(=O)N(CC1CO1)C1OC[C@H](O)[C@H](O)[C@H]1O` (stereo partly drawn) [1-(2-chloroethyl)-1-nitroso-3-(oxiran-2-yl-methyl)-3-(L-arabinopyranosyl)urea] as the compound, how does the “increase in the average life span” value (Leukemia L-1210; 1.05 mg/kg i.p.) read?
**A.** The value was “about 30%”.

**Q.** Which “increase in the average life span” value (Leukemia L-1210; 0.35 mg/kg i.p.) does the source give for `O=NN(CCCl)C(=O)N(Cc1cccs1)C1OC[C@H](O)[C@H](O)[C@H]1O` (stereo partly drawn) [1-(2-chloroethyl)-1-nitroso-3-(thiophen-2-yl-methyl)-3-(L-arabinopyranosyl)urea] here?
**A.** The value was “about 30%”.

**Q.** With `O=NN(CCCl)C(=O)N(CC1CC1)C1OC[C@H](O)[C@H](O)[C@H]1O` (stereo partly drawn) [1-(2-chloroethyl)-1-nitroso-3-cyclopropylmethyl-3-(L-arabinopyranosyl)urea] as the compound, how does the “increase in the average life span” value (Leukemia L-1210; 1.1 mg/kg i.p.) read?
**A.** Its value is “about 30%”.

**Q.** With `O=NN(CCCl)C(=O)N(CC1CCCO1)C1O[C@H](CO)[C@H](O)[C@H](O)[C@H]1O` (stereo partly drawn) [1-(2-chloroethyl)-1-nitroso-3-tetrahydrofurfuryl-3-(D-galactopyranosyl)urea] as the compound, how does the “increase in the average life span” value (Leukemia L-1210; 1.7 mg/kg i.p.) read?
**A.** Its value is “about 30%”.

**Q.** For `O=NN(CCCl)C(=O)NC1CCCCC1` [CCNU, 1-(2-chloroethyl)-1-nitroso-3-cyclohexylurea, reference compound], which Inhibition ratio ([1]; 3.12 mg/kg/day i.p., 5 days) is on record?
**A.** Its Inhibition ratio is 21.1%.

**Q.** And the Inhibition ratio ([1]; 6.25 mg/kg/day i.p., 5 days)?
**A.** The Inhibition ratio was 33.3%.

**Q.** What about the Inhibition ratio ([1]; 12.5 mg/kg/day i.p., 5 days) of the same compound?
**A.** The Inhibition ratio was 100%.

**Q.** And the Inhibition ratio ([1]; 50 mg/kg/day i.p., 5 days)?
**A.** The Inhibition ratio was 100%.

**Q.** And the “Toxic (number of mice died/number of mice used)” value ([1]; 100 mg/kg/day i.p., 5 days)?
**A.** Its value is 5/5.

**Q.** What about the “Therapeutic index (MTD/MED)” value [1] of the same compound?
**A.** The value was 4.

**Q.** What about the “MTD (Maximum Tolerated Dose)” value ([1]; max dose, 100% inhibition without death, doses of the table in mg/kg/day, 10080 min) of the same compound?
**A.** Its value is 50.

**Q.** With `Cc1ccc(CN(C(=O)N(CCCl)N=O)C2O[C@H](CO)[C@@H](O[C@H]3O[C@H](CO)[C@@H](O)[C@H](O)[C@H]3O)[C@H](O)[C@H]2O)cc1` (stereo partly drawn) [Compound 2, 1-(2-chloroethyl)-1-nitroso-3-(p-methylbenzyl)-3-[O-α-D-glucopyranosyl-(1→4)-D-glucopyranosyl]urea] as the compound, how does the “Toxic (number of mice died/number of mice used)” value ([1]; 800 mg/kg/day i.p., 5 days) read?
**A.** Its value is 5/5.

**Q.** And the “Therapeutic index (MTD/MED)” value [1]?
**A.** The value was 256.

**Q.** What about the inhibition in vivo at 0.39 mg/kg ([1]; Mus musculus, Ehrlich, ip, 120 h, 0.39 mg/kg/day i.p., 5 days, read-out: Inhibition ratio) of the same compound?
**A.** The inhibition in vivo at 0.39 mg/kg was 12.8%.

**Q.** And the inhibition in vivo at 0.78 mg/kg [1, 3]?
**A.** Its inhibition in vivo at 0.78 mg/kg is 74.4%.

**Q.** And the inhibition in vivo at 1.56 mg/kg [1, 3]?
**A.** Its inhibition in vivo at 1.56 mg/kg is 100%.

**Q.** What about the inhibition in vivo at 6.25 mg/kg [1, 4] of the same compound?
**A.** The inhibition in vivo at 6.25 mg/kg was 100%.

**Q.** And the inhibition in vivo at 25 mg/kg [1, 3]?
**A.** Its inhibition in vivo at 25 mg/kg is 100%.

**Q.** And the inhibition in vivo at 100 mg/kg [1, 5]?
**A.** Its inhibition in vivo at 100 mg/kg is 100%.

**Q.** And the inhibition in vivo at 400 mg/kg [1, 6]?
**A.** Its inhibition in vivo at 400 mg/kg is 100%.

**Q.** What about the minimal effective dose [1, 7] of the same compound?
**A.** The minimal effective dose was 1.56 mg/kg/day.

**Q.** What about the MTD at 168 h [2] of the same compound?
**A.** The MTD at 168 h was 400 mg/kg/day.

**Q.** With `O=NN(CCCl)C(=O)N(CCc1ccccc1)C1O[C@H](CO)[C@@H](O[C@H]2O[C@H](CO)[C@@H](O)[C@H](O)[C@H]2O)[C@H](O)[C@H]1O` (stereo partly drawn) [Compound 4, 1-(2-chloroethyl)-1-nitroso-3-phenethyl-3-[O-α-D-glucopyranosyl-(1→4)-D-glucopyranosyl]urea] as the compound, how does the “Toxic (number of mice died/number of mice used)” value ([1]; 400 mg/kg/day i.p., 5 days) read?
**A.** Its value is 5/5.

**Q.** And the “Therapeutic index (MTD/MED)” value [1]?
**A.** Its value is 64.

**Q.** And the inhibition in vivo at 0.78 mg/kg [1, 3]?
**A.** Its inhibition in vivo at 0.78 mg/kg is 2.6%.

**Q.** What about the inhibition in vivo at 1.56 mg/kg [1, 3] of the same compound?
**A.** Its inhibition in vivo at 1.56 mg/kg is 66.7%.

**Q.** And the inhibition in vivo at 3.12 mg/kg [1, 8]?
**A.** The inhibition in vivo at 3.12 mg/kg was 100%.

**Q.** And the inhibition in vivo at 12.5 mg/kg ([1]; Mus musculus, Ehrlich, ip, 120 h, 12.5 mg/kg/day i.p., 5 days, read-out: Inhibition ratio)?
**A.** The inhibition in vivo at 12.5 mg/kg was 100%.

**Q.** And the inhibition in vivo at 50 mg/kg ([1]; Mus musculus, Ehrlich, ip, 120 h, 50 mg/kg/day i.p., 5 days, read-out: Inhibition ratio)?
**A.** Its inhibition in vivo at 50 mg/kg is 100%.

**Q.** And the inhibition in vivo at 200 mg/kg ([1]; Mus musculus, Ehrlich, ip, 120 h, 200 mg/kg/day i.p., 5 days, read-out: Inhibition ratio)?
**A.** Its inhibition in vivo at 200 mg/kg is 100%.

**Q.** And the minimal effective dose [1, 7]?
**A.** The minimal effective dose was 3.12 mg/kg/day.

**Q.** And the MTD at 168 h [2]?
**A.** The MTD at 168 h was 200 mg/kg/day.

**Q.** Which “Toxic (number of mice died/number of mice used)” value ([1]; 800 mg/kg/day i.p., 5 days) does the source give for `CC(c1ccccc1)N(C(=O)N(CCCl)N=O)C1O[C@H](CO)[C@@H](O[C@H]2O[C@H](CO)[C@@H](O)[C@H](O)[C@H]2O)[C@H](O)[C@H]1O` (stereo partly drawn) [Compound 5, 1-(2-chloroethyl)-1-nitroso-3-(α-methylbenzyl)-3-[O-α-D-glucopyranosyl-(1→4)-D-glucopyranosyl]urea] here?
**A.** Its value is 4/5.

**Q.** What about the “Therapeutic index (MTD/MED)” value [1] of the same compound?
**A.** Its value is 128.

**Q.** And the inhibition in vivo at 1.56 mg/kg [1, 3]?
**A.** The inhibition in vivo at 1.56 mg/kg was 6.2%.

**Q.** And the inhibition in vivo at 3.12 mg/kg [1, 8]?
**A.** The inhibition in vivo at 3.12 mg/kg was 100%.

**Q.** And the inhibition in vivo at 6.25 mg/kg [1, 4]?
**A.** The inhibition in vivo at 6.25 mg/kg was 100%.

**Q.** And the inhibition in vivo at 25 mg/kg [1, 3]?
**A.** Its inhibition in vivo at 25 mg/kg is 100%.

**Q.** And the inhibition in vivo at 100 mg/kg [1, 5]?
**A.** The inhibition in vivo at 100 mg/kg was 100%.

**Q.** What about the inhibition in vivo at 400 mg/kg [1, 6] of the same compound?
**A.** The inhibition in vivo at 400 mg/kg was 100%.

**Q.** And the minimal effective dose [1, 7]?
**A.** Its minimal effective dose is 3.12 mg/kg/day.

**Q.** What about the MTD at 168 h [2] of the same compound?
**A.** The MTD at 168 h was 400 mg/kg/day.
